Data published in a melting point compilation (Tetko et al.; mined from patent text by program, amines drawn as free bases though some values may be those of a salt).

| melting point [°C] | Structure (SMILES) |
| --- | --- |
| 113 to 114 | COc1cc(C(O)c2ccc3ccccc3c2)ccc1OCc1ccccc1 (centres undefined) |
| 140 | CS(=O)c1cccc(NC(=O)NCC(=O)N(CC(=O)N2CCCc3ccccc32)c2ccccc2)c1 (racemic) |
| 112 to 114 | COc1cccc(CN[C@H](C)c2ccc([N+](=O)[O-])cc2)c1O |
| 325 to 330 | Nc1nc2cc(C(=O)c3ccccc3)ccc2n1CCC(=O)O |
| 193 to 195 | CNC(=O)c1ccccc1N=C(NC(=O)c1ccccc1)SC |
| 164 to 170 | COc1nc(OC)nc(N(C)C(=O)NS(=O)(=O)c2ccccc2C(F)F)n1 |
| 195 | COc1cc(Nc2nccc(-c3ccc(N)cc3)n2)cc(OC)c1OC |
| 219 to 220 | CN1CCN(c2cc(F)cc3c(=O)cc(C(=O)Nc4ccc(N5CCN(C(=O)OC(C)(C)C)CC5)cc4)oc23)CC1 |
| 133 to 135 | CC(C)c1cc(C(=O)Nc2ccc(C(=O)O)c(F)c2)sc1C(C)C |
| 110 to 114 | O=C(c1c(Cl)cccc1Cl)n1ccnc1-c1ccccc1 |
| 96 | Cc1ccc2c(c1)c1cc(Br)ccc1n2C(=O)OC(C)(C)C |
| 201 to 203 | Cc1ccc(C(=O)Nc2c[nH]nc2C(=O)NCCC#N)cn1 |
| 215 | Cc1ccc(C(=O)C2=C(O)C(=O)N(c3ccc(C)nn3)C2c2ccc(OC(F)(F)F)cc2)cc1 (centres undefined) |
| 107 to 110 | CCOC(=O)C(C)(C)c1ccc2c(c1)N(CC(C)N(C)C)c1ccccc1S2 (centres undefined) |
| 112 to 114 | O=C(Nc1ccc(Oc2ccnc(NCCN3CCOCC3)n2)c2ccccc12)c1cc(F)cc(N2CCOCC2)c1 |
| 127 to 131 | Cc1ccc(-c2ccc(S(C)(=O)=O)cc2)n1-c1ccc(-c2ccco2)c(Cl)c1 |
| 208 to 210 | COc1ccc(NC(=O)c2ccccc2NC(=O)c2ccc(C(C)(C)C)cc2)cc1 |
| 218 | Cc1c(C(=O)Nc2ccc(N3CCC(N4CCOCC4)CC3)c(C#N)c2)cnn1-c1ccccc1Cl |
| 83 to 85 | COc1ccc(COC(=O)[C@@H]2C[C@@H](O)CN2C(=O)OCc2ccc([N+](=O)[O-])cc2)cc1 |

| melting point [°C] | Structure (SMILES) |
| --- | --- |
| 173 to 174 | O=[N+]([O-])c1cc(-c2ccoc2)ccc1Nc1cccc(-n2ccnc2)n1 |
| 243 to 244 | CNc1nc(-c2ccc(F)cc2)c(-c2ccc(S(C)(=O)=O)cc2)s1 |
| 100 to 101 | CCOC(=O)c1cc2c(C)c(OCc3ccccc3)ccc2n1C |
| 105 to 106 | COc1ccccc1SC(CCc1ccc(Cl)cc1)Cn1ccnc1 (centres undefined) |
| 155 to 156 | Cc1ccc(S(=O)(=O)NCc2ccccc2CC(=O)O)cc1 |
| 56 to 58 | CC(=O)Oc1c(Cc2ccccc2)ccc2c1ccn2C |
| 219 to 221 | N#Cc1cnc2sc(-c3ccccc3)cc2c1NCc1ccc2[nH]ccc2c1 |
| 103 to 122 | CC(C)c1cccc(OCc2cc(Br)ccc2C(=O)O)c1 |
| 137 to 139 | CCOC(=O)c1oc2c(C(=O)c3ccccc3)ccc(OC)c2c1C |
| 153 to 154 | CC(C)(C)OC(=O)C(O)c1ccc2c(c1)OC(c1ccccc1)(c1ccccc1)O2 (centres undefined) |
| > 250 | CNS(=O)(=O)c1ccc(NN=C2C(=O)Nc3ccc(C(N)=O)cc32)cc1 |
| 240 to 245 | O=C(NC[C@H]1CN(c2ccc3c(c2)CCCc2cnoc2-3)C(=O)O1)c1ccccc1 |
| 147 to 149 | COC(=O)c1ccc2c(c1)c(Cc1ccc(C(=O)Cl)cc1OC)cn2C |
| 167 to 175 | N#Cc1ccc(-c2cn(-c3ccc(C#N)cc3)c(CC3(O)C=CC=CN3)n2)cc1 (centres undefined) |
| 296 to 297 | COc1ccc(-n2c(=O)[nH]c3c(-c4ccc(C(F)(F)F)cc4F)ncnc32)cc1 |
| 122 | CCCCc1c(/C=C/C(=O)Oc2ccc([N+](=O)[O-])cc2)cc(OC)c2ccccc12 |
| 132 to 133 | CC[C@H](C)[C@H](NC(=O)NCc1ccccc1)C(=O)N[C@H](CO)Cc1c[nH]c2ccccc12 |
| 148 to 155 | COc1ccccc1CN1CCc2cc(O)ccc2C1 |
| 109 | CCOC(=O)CCc1cc2ccccc2c(-c2ccccc2)n1 |

The remaining lines, values behind:

| Structure (SMILES) | melting point [°C] |
| --- | --- |
| Cc1csc(C)c1S(=O)(=O)Cl | 79 |
| COC(=O)C=CCCC(C)C1CCC2C3CCC4CC(OC=O)CCC4(C)C3CC(OC=O)C12C (centres undefined) | 112 to 115 |
| Cc1cccc(S(=O)(=O)n2c(CCCC(=O)O)cc3nc(Cl)ccc32)c1 | 165 |
| O=c1[nH]c2c(Cl)sc(Cl)c2c(=O)c2cscc12 | 236 to 239 |
| CCN(CC)CC1(C)Cc2c(C)c(N3CCN(c4ccc(OC)cc4)CC3)c(C)c(C)c2O1 (centres undefined) | 103 to 106 |
| CC(=O)N1CCN(c2nc(N)ncc2Oc2ccc(Cl)cc2)CC1 | 153 to 157 |
| O=C(CN1C(=O)C(NC(=O)OCc2ccccc2)N=C(c2ccccc2)c2ccccc21)NCc1ccccc1 (centres undefined) | 204 to 205 |
| CCOc1nn(Cc2ccc(OCc3nc(-c4ccccc4)oc3C)nc2)cc1CCC(=O)O | 143 to 144 |
| CS(=O)(=O)c1ccc(-c2cnn(CC(F)(F)F)c(=O)c2OCCN2CCCCC2)cc1 | 117 to 118 |
| CC(C)n1nc(-c2cc(-c3ncnn3C)c(N)nc2-c2ccccc2)ccc1=O | 253 to 254 |
| CSc1nc(SC)nc(-c2cc(C(C)(C)C)c(O)c(C(C)(C)C)c2)n1 | 94 |
| CC(C)C[C@H](NC(=O)OCC1CCCCC1)C(=O)N[C@@H](C(C)C)[C@H](O)c1c(-c2ccccc2)c1=O | 148 to 149 |
| Cc1c(NCC2CCCCO2)cc2oc(=O)[nH]c2c1F (centres undefined) | 166 |
| CC(=CC#N)CN1C(=O)c2ccccc2S1(=O)=O | 119 to 121 |
| COc1ccc(OCC2CN(C(C)CO)C(=O)O2)cc1 (centres undefined) | 62 to 67 |
| CCCCN(CCCC)C(=O)Nc1cccc(Br)c1 | 80 to 81 |
| CN1CCC(c2c[nH]c3ccc([N+](=O)[O-])cc23)CC1 | 200 to 202 |
| C=C1CCC2=C(C1)CC(C)C1C2CCC2(C)C(O)CCC12 (centres undefined) | 112 |
| CCCC1(C(=O)O)CCCCC1 | 58 to 59 |
| Cc1noc(C)c1C(=O)Nc1ccc(-n2nc(C(F)(F)F)cc2C(F)(F)F)cc1 | 179 to 180 |
| NS(=O)(=O)OCCCOc1ccccc1 | 83 to 85 |

| Structure (SMILES) | melting point [°C] |
| --- | --- |
| CCCCn1c(=O)[nH]c2nc3ccccc3n2c1=O | 275 to 280 |
| COc1ccc2ccc(N3C(=O)C4=C(SCCO4)C3O)nc2n1 (centres undefined) | 222 |
| CCc1nc(C)ccc1OC1SCC(O)C(O)C1O (centres undefined) | 172 to 174 |
| O=C1CCN(C2c3ccccc3-c3ccccc32)CC1 | 135 |
| O=c1c2ccccc2[nH]n1CC#Cc1ccccc1 | 151 to 154 |
| CN1C(=O)CC[C@]2(C)c3ccc(-c4ccc5c(c4)OCO5)cc3CC[C@@H]12 | 146 to 152 |
| Cc1nc2c(-c3cccc(N4CCC(N5CCCC5)CC4)c3)cnn2c(N)c1-c1cccc(Cl)c1 | 188 to 193 |
| COC(=O)c1cc(Cl)c(N=C2NCCN2C(C)=O)c(Cl)c1 | 188 to 189 |
| CCCOc1ccc(N)cc1C1=NC(=O)C2=NN=NC2=N1 | 225 to 227 |
| N#Cc1cc(Cn2cncn2)cc(-c2ccc(OS(N)(=O)=O)c(Cl)c2)c1 | 163 to 164 |
| O=C1CCN(C(=O)c2ccc(Cl)cc2Cl)c2ccc(Cl)cc21 | 177 to 178 |
| CCN1CCc2cc(Nc3ncc(Cl)c(Nc4ccc(N5CCOCC5)cc4OC)n3)c(OC)cc2CC1=O | 212 to 214 |
| O=C1c2ccccc2-c2c1c1ccccc1c(=O)n2CCCO | 173 to 175 |
| C=CCN1C(=O)COc2ccc(C3CC(=O)C(C(CC)=NOCC)=C(O)C3)cc21 (centres undefined) | 79 to 83 |
| O=C(Cc1c(Cl)c(F)nc(F)c1Cl)OCc1ccccc1 | 98 to 101 |
| CCOc1cc(C=CC(C)=O)ccc1OC | 95 to 96 |
| CCOC(=O)c1cn2c(n1)CN(C(=O)OCC)c1ccccc1-2 | 151 to 153 |
| COCc1nnc(-c2cccnc2)n1-c1c(Cl)c(C)cc2nc(OC)c(OC)nc12 | 183 to 184 |
| CC(C)CC1NC(C)(C)CNC1=O (centres undefined) | 112 to 115 |
| CN(C(=O)c1ccc2nonc2c1)C1CCN(C(=O)OC(C)(C)C)CC1 | 98 to 100 |
| CCCCc1nn2cc(C)nc2n1Cc1ccc(-c2ccccc2-c2nnn[nH]2)cc1 | 124 to 125 |

| Structure (SMILES) | melting point [°C] |
| --- | --- |
| CCCCOC(=O)c1c(CN2CCCCC2)nc2cc(OC)c(OC)cc2c1-c1ccc(OC)c(OC)c1 | 154 to 155 |
| O=C(CSCc1ccc(Cl)c(Cl)c1)NO | 75 to 76 |
| Cc1cn(CCC(=O)N(C)C)nc1-c1ccccc1 | 60 to 63 |
| CC(=O)C1CCC2C3CCC4CC(O)CCC4(C)C3C(OC(=O)CCl)CC12C (centres undefined) | 83 to 86 |
| CCOC(=O)C(O)c1ccc(C2CCCCC2)cc1 (centres undefined) | 85 to 86 |
| O=C(O)CCCOc1cccc(CCCCCCOc2ccc3c(c2CCCc2ccccc2)OCCC3=O)c1CCC(=O)O | 104 to 106 |
| CCCCSc1c(N)cc(C(=O)O)cc1S(N)(=O)=O | 223 to 224 |
| BrCc1c(Br)c(Br)c(CBr)c(Br)c1Br | 268 to 271 |
| CC(=O)NCC1CN(c2ccc(N3CCN(c4nnc(C5CC5)s4)CC3)c(F)c2)C(=O)O1 (centres undefined) | 217 to 218 |
| Nc1ncnc2c1ncn2[C@@H]1O/C(=C\F)[C@@H](O)[C@H]1O | 225 to 230 |
| Cn1cc(C2=C(c3cn(CCCSC4=NCCS4)c4ccccc34)C(=O)NC2=O)c2ccccc21 | 170 to 173 |
| CCSc1nc(Cl)c2sc3nc(-c4ccccc4)cc(C)c3c2n1 | 150 to 154 |
| CCc1cc(-c2nc(C)c(-c3ccnc(Nc4ccc(N5CCOCC5)cc4)n3)s2)ccn1 | 214 to 215 |
| CCCCN=C(N(CCCC)CCCC)N(CCCC)CCCC | 100 to 102 |
| CC(=O)N1CCC(c2nc3cccc4c3n2CCC4)CC1 | 139 to 140 |
| O=C=Nc1ccc(NCc2ccc(F)c(Cl)c2)c(C(F)(F)F)c1 | 144 to 146 |
| CS(=O)(=O)OCCN(CCCl)c1ccc([N+](=O)[O-])c(C(=O)NCCCO)c1[N+](=O)[O-] | 104 to 109 |
| CSc1c[nH]c2ncnc(Cl)c12 | 166 to 167 |
| COc1c(O)c(C=O)cc2c1OCC2 | 71 to 72 |
